Target: Acrosin (Homo sapiens, UniProt P10323)
Assay: Inhibition of human sperm acrosin using BAPNA as substrate after 3 hrs by spectrophotometric analysis

Sequence of Acrosin (P10323 20-42 limits assumed): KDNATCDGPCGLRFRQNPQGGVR
Sequence of Acrosin (P10323 43-343 limits assumed): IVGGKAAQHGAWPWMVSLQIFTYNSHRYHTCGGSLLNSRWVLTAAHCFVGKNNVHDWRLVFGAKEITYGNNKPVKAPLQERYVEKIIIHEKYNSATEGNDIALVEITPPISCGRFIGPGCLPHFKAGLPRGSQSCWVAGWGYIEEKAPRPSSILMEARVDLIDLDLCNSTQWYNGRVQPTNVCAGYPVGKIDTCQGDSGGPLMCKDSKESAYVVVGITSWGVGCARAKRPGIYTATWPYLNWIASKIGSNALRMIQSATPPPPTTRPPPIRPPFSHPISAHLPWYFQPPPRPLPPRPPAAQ

Row | SMILES | IC50
1 | O=Cc1cc(-c2ccc(Cl)cc2Cl)on1 | 0.39 mM
2 | COc1ccc(-c2cc(C(=O)N(C)CCO)n[nH]2)cc1 | 0.41 mM
3 | COc1ccc(-c2cc(C(=O)NCCOCCO)n[nH]2)cc1 | 6.02 mM
4 | O=C(NCCO)c1cc(-c2ccc([N+](=O)[O-])cc2)[nH]n1 | 2.7 mM
5 | O=C(c1cc(-c2ccc([N+](=O)[O-])cc2)[nH]n1)N(CCO)CCO | 5.6 mM
6 | O=C(NCCCO)c1cc(-c2ccc([N+](=O)[O-])cc2)[nH]n1 | 3.07 mM
7 | CC(O)CNC(=O)c1cc(-c2ccc([N+](=O)[O-])cc2)[nH]n1 (stereo not drawn) | 2.95 mM
8 | CC(O)CN(CC(C)O)C(=O)c1cc(-c2ccc([N+](=O)[O-])cc2)[nH]n1 (stereo not drawn) | 1.21 mM
9 | CN(CCO)C(=O)c1cc(-c2ccc([N+](=O)[O-])cc2)[nH]n1 | 2 mM
10 | CC(C)(CO)NC(=O)c1cc(-c2ccc([N+](=O)[O-])cc2)[nH]n1 | 1.875 mM
11 | O=C(NCCOCCO)c1cc(-c2ccc([N+](=O)[O-])cc2)[nH]n1 | 2.07 mM
12 | O=C(NC(CO)(CO)CO)c1cc(-c2ccc([N+](=O)[O-])cc2)[nH]n1 | 5.22 mM
13 | O=C(NCCO)c1cc(-c2cccc([N+](=O)[O-])c2)[nH]n1 | 0.76 mM
14 | O=C(c1cc(-c2cccc([N+](=O)[O-])c2)[nH]n1)N(CCO)CCO | 2.4 mM
15 | O=C(NCCCO)c1cc(-c2cccc([N+](=O)[O-])c2)[nH]n1 | 0.78 mM
16 | CC(O)CNC(=O)c1cc(-c2cccc([N+](=O)[O-])c2)[nH]n1 (stereo not drawn) | 1.83 mM
17 | CN(CCO)C(=O)c1cc(-c2cccc([N+](=O)[O-])c2)[nH]n1 | 0.79 mM

Row | SMILES | IC50
18 | O=C(NCCOCCO)c1cc(-c2cccc([N+](=O)[O-])c2)[nH]n1 | 9.1 mM
19 | O=C(NC(CO)(CO)CO)c1cc(-c2cccc([N+](=O)[O-])c2)[nH]n1 | 0.76 mM
20 | O=C(NCCO)c1cc(-c2ccc(Br)cc2)[nH]n1 | 0.53 mM
21 | O=C(c1cc(-c2ccc(Br)cc2)[nH]n1)N(CCO)CCO | 1.52 mM
22 | O=C(NCCCO)c1cc(-c2ccc(Br)cc2)[nH]n1 | 0.38 mM
23 | CC(O)CNC(=O)c1cc(-c2ccc(Br)cc2)[nH]n1 (stereo not drawn) | 0.33 mM
24 | CC(CO)NC(=O)c1cc(-c2ccc(Br)cc2)[nH]n1 (stereo not drawn) | 0.88 mM
25 | O=C(NCCOCCO)c1cc(-c2ccc(Br)cc2)[nH]n1 | 10 mM
26 | O=C(NCCO)c1cc(-c2ccccc2)[nH]n1 | 2.8 mM
27 | O=C(c1cc(-c2ccccc2)[nH]n1)N(CCO)CCO | 1.7 mM
28 | O=C(NCCCO)c1cc(-c2ccccc2)[nH]n1 | 0.54 mM
29 | CC(O)CNC(=O)c1cc(-c2ccccc2)[nH]n1 (stereo not drawn) | 0.06 mM
30 | CC(O)CN(CC(C)O)C(=O)c1cc(-c2ccccc2)[nH]n1 (stereo not drawn) | 0.01 mM
31 | CC(CO)NC(=O)c1cc(-c2ccccc2)[nH]n1 (stereo not drawn) | 3 mM
32 | O=C(NC(CO)(CO)CO)c1cc(-c2ccccc2)[nH]n1 | 0.94 mM
33 | COc1ccc(-c2cc(C(=O)NCCO)n[nH]2)cc1 | 0.09 mM

From ChEMBL document CHEMBL2396555, “Synthesis and acrosin inhibitory activities of 5-phenyl-1H-pyrazole-3-carboxylic acid amide derivatives” (Bioorg Med Chem Lett, 2013)
